# Test results reported in PubChem BioAssay (NCI).
# “And” between values parts separate entries of the source, which are not always exact repeats. Equal values may be shown once.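 Step 1: Grow cells in 96-well plates. Step 2: Expose to compound for 48 hours at 5 concentrations. Step 3: Interpolate endpoints linearly; if unreached, use highest concentration. Here, GI50 denotes the concentration required for 50% inhibition of growth. The concentration for full growth arrest is given as TGI.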
# Columns and labels:
# Test in all cases: NCI anticancer screen, dose series, 48 h
# U251 CNS = test system: U251 CNS
# A549 NSCLC = test system: A549 NSCLC
# M19-MEL melanoma = test system: M19-MEL melanoma
# HOP-62 NSCLC = test system: HOP-62 NSCLC
# LOX IMVI melanoma = test system: LOX IMVI melanoma
# CCRF-CEM leukemia = test system: CCRF-CEM leukemia
# COLO 205 colon = test system: COLO 205 colon
# MOLT-4 leukemia = test system: MOLT-4 leukemia
# RXF 393 renal = test system: RXF 393 renal
# K-562 leukemia = test system: K-562 leukemia
Compound,TGI (U251 CNS) [µM],TGI (A549 NSCLC),TGI (M19-MEL melanoma) [µM],TGI (HOP-62 NSCLC),TGI (LOX IMVI melanoma),TGI (CCRF-CEM leukemia),TGI (COLO 205 colon),TGI (MOLT-4 leukemia),TGI (RXF 393 renal),TGI (K-562 leukemia) [µM],GI50 (U251 CNS),GI50 (A549 NSCLC) [nM],GI50 (HOP-62 NSCLC),GI50 (CCRF-CEM leukemia),GI50 (COLO 205 colon),GI50 (MOLT-4 leukemia) [µM],GI50 (RXF 393 renal),GI50 (K-562 leukemia)
CC12CCC([C@H](N3CCOCC3)/C1=N\OCCN1CCCC1)C2(C)C (stereo partly drawn),> 100,> 100 µM,> 100,> 100 µM,> 100 µM,> 100 µM,> 100 µM,> 100 µM,> 100 µM,> 100,–,–,–,–,–,–,–,–
COc1ccc(C2=Nc3ccccc3SC(C)C2)cc1 (stereo not drawn),> 100,> 100 µM,> 100,> 100 µM,> 100 µM,> 100 µM,> 100 µM,> 100 µM,> 100 µM,83.3,–,–,–,–,–,–,–,–
CCC1=C(C)/C(=C/c2[nH]c(C(Br)Br)c(CC)c2C)N=C1C(Br)Br,86.4,> 100 µM,79.1,> 100 µM,> 100 µM,55.3 µM,21 µM,27.4 µM,78.9 µM,> 100,–,–,–,–,–,–,–,–
COc1cc(=O)oc(/C=C/C=O)c1C,28.6,> 100 µM,35.7,34.9 µM,16.6 µM,88.3 µM,31.6 µM,77.3 µM,34.8 µM,> 100,–,–,–,–,–,–,–,–
NC(C/[N+]([O-])=N/O)C(=O)O (stereo not drawn),> 500,> 100 µM and 67.9 µM,> 373,> 100 µM and 92.7 µM,> 100 µM and 153 µM,> 100 µM and 418 µM,> 62.7 µM and > 100 µM and 256 µM,> 100 µM and 315 µM,> 100 µM and 381 µM,> 419,772 nM and 3820 nM and 713 nM,240,19.4 µM and 9.42 µM and 4.9 µM,> 29.3 µM and 11.3 µM,21.6 µM and 69.7 µM and 17.4 µM,23.3,93.2 µM and > 100 µM and 29 µM,29.5 µM and 11.2 µM and 15 µM
CC(=O)OCCOCNC(=S)N/N=C/c1ccc2ccccc2n1,> 100,> 100 µM,> 100,> 100 µM,> 100 µM,> 100 µM,46.6 µM,> 100 µM,> 100 µM,> 100,–,–,–,–,–,–,–,–
Cc1c(C(=O)CC(=O)C(=O)Nc2c(C(C)C)cccc2C(C)C)[n+](=O)c2ccccc2n1[O-],10.7,32.3 µM,4.87,59.3 µM,12.9 µM,7.84 µM,15.2 µM,8.2 µM,38.9 µM,31.1,–,–,–,–,–,–,–,–
O=C1c2cccc3cc([N+](=O)[O-])cc(c23)C(=O)N1NC1=NCCN1,> 100,> 100 µM,> 100,> 100 µM,> 100 µM,> 100 µM,> 100 µM,> 100 µM,> 100 µM,> 100,–,–,–,–,–,–,–,–
